One series relates to A549 cells. Briefly: Quantification of intracellular PN (LC-MS/MS). In kind it is cell-based, human. Particulars: 24 or 48 h. The method, then:
A549 cells were cultured in absence or the presence of 5 mM PN for 24 or 48 h, harvested, washed once in cold PBS and pelleted at 800 G for 10 min. Supernatants were discarded and pellets were dissolved in 500 μL of deionized H2O by vortexing for 1 min followed by sonication for 10 min. Thereafter, lysates were centrifuged at 5,796 G for 10 min and 60 μL of the resulting supernatant were mixed with an equal volume of trichloroacetic acid (TCA). Upon additional centrifugation (5,796 G, 10 min), 50 μL of sample were injected onto the chromatographic column and PN was measured by liquid chromatography with tandem mass spectrometry (LC-MS/MS), as previously described {Johansson, 2010; Midttun, 2009}.

In series [1] the test system is CDDP-resistant A549 clones (A549 #1-3), HCC827, H1299, H1650, H1975, HeLa, U2OS and WT HCT 116 cells. The experiment in a line: Cytofluorometric assessment of cell death, CDDP alone or combined with PN, panel of cell lines. In kind it is cell-based, human. The following applies: sub-apoptotic dose of CDDP alone or combined with 2.5 mM PN. An excerpt:
(A-C) Cytofluorometric assessment of cell death induced by the indicated sub-apoptotic dose of cisplatin (CDDP) alone or combined with PN in 3 distinct CDDP-resistant A549 clones (A549 #1-3, A), in 4 non-small cell lung cancer (NSCLC) cell lines other than A549 (HCC827, H1299, H1650 and H1975 cells, B), in cervical carcinoma HeLa cells, in osteosarcoma U2OS cells as well as in wild type (WT) or TP53^−/− colon carcinoma HCT 116 cells (C).
Unless otherwise specified, chemicals were purchased from Sigma-Aldrich (St. Louis, USA), culture media and supplements for cell culture from Gibco-Invitrogen (Carlsbad, USA) and plasticware from Corning (Corning, USA). Anti-human interleukin 6 (IL6, goat antiserum #AB-206-A) and IL6 receptor (IL6R, goat antiserum #AB-227-A) neutralizing antibodies were purchased by R&D Systems (Minneapolis, USA). Orlistat (Xenical®) was obtained from Roche (Basel, Switzerland). […]
To measure apoptosis-related parameters, living cells were labeled for 30 min at +37° C. with 40 nM 3,3′dihexyloxalocarbocyanine iodide (DiOC6(3), from Molecular Probes-Invitrogen, Eugene, USA), which quantifies the mitochondrial transmembrane potential (Δψm), plus 1 μg/mL propidium iodide (PI), which only accumulates in cells with ruptured plasma membrane {Galluzzi, 2009; Galluzzi, 2008; Galluzzi, 2007}. […]

The values that follow come from US20130281313A1, “PROGNOSTIC AND/OR PREDICTIVE BIOMARKERS AND BIOLOGICAL APPLICATIONS THEREOF” (INSTITUT GUSTAVE ROUSSY, priority 2010, published 2013).

As for `Cc1ncc(CO)c(CO)c1O` [PN, pyridoxine], in the series with A549 cells, the “intracellular PN concentration upon acute addition” value is recorded as “increased the intracellular PN concentration”. Further, the “chemosensitization to CDDP in other cancer cell lines” value in series [1] is on record as “exerted chemosensitizing effects”.
